# Laboratory results taken from patent publication US20020049257A1, “Antibacterial composition” (priority 2000, published 2002).
# Key:
# [1] = tested on: Ax 15 Corynebacterium jeikeium; test: MIC microtiter plate test, axilla strain Ax 15; assay type: cell-based; settings: for Bacteriostatic activity Corynebact. Ax 15: at least 80% reduction in growth during 24 hours, Table 7; for Minimal inhibitory concentration (MIC) Ax 15: at least 80% growth inhibition, 24 h, 36° C., Table 1
# Source text: (§1) The different bacterial strains had been isolated from the human axilla by current microbiological practice. They were taxonomically identified by cell morphology, gram-reaction, and biochemical tests included in the Api coryne test kit (BioMerieux, France). Strain Staphylococcus epidermidis Ax25 was identified by fatty acid methyl ester analysis (FAME; German type strain collection DSMZ, Germany). The strains were maintained on Tryptic soy broth plates, this standard medium being amended with 5 g per Liter of Tween 80 and 1 g of Soybean lecithin. Plates were incubated at 36° C. for a period 48 hours. The bacteria were then swabbed from the plates and suspended in 4 ml of Muller-Hinton broth amended with 100 mg of Tween 80 per Liter (MH-Tween) and incubated again at 360 C for 16 hours. Following incubation the bacterial suspensions were diluted in MH-Tween to obtain a final cell density of 10^6 colony forming units per ml. For each fragrance material four microtiter plates were used in the example, each microtiter plate having 8 rows, A-H, and 12 columns, 1-12. To each column a diluted suspension of a different test organism was distributed, 100 μl per well. 1% stock solutions of the fragrance materials were then prepared in MH-Tween broth. The fragrance material was dispersed by ultrasonication into the aqueous medium to obtain a homogenous emulsion. 100 μl per well of this emulsion was then added to the first row of the microtiter plates already containing the target organisms. Serial dilution series were then prepared starting at row A and continuing until row G, each time removing 100 μl from a well and transferring it to the next well. In this way fragrance concentrations of 0.5%, 0.25%, 0.125%, 0.0625%, 0.03125%, 0.0156%, and 0.0078% were tested for their antibacterial efficacy. The reference compound Triclosan was tested at 16-fold lower concentrations. The plates were covered with plastic films and incubated for 24 h at 36° C. with shaking at 250 rpm. The turbidity developing in the microtiter plates was then examined after 24 h to determine microbial growth. The minimal concentration of fragrance inhibiting the growth of an organism by at least 80% was determined as the minimal inhibitory concentration (MIC).
# (§2) Ax 25 was identified as Staphylococcus epidermidis by FAME analysis. Identification with the Api Coryne test kit yielded the following species assignments for the remainder of the strains: Ax 26 Corynebacterium sp.; Ax 3 Corynebacterium bovis; Ax 7 Corynebacterium group G; Ax 10 Corynebacterium jeikeium; Ax 11 Corynebacterium jeikeium; Ax 12 Corynebacteriurn jeikeium; Ax 15 Corynebacterium jeikeium; Ax 20 Corynebacterium striatum/amycolatum; and Ax 19 Corynebacterium jeikeium. The strains were isolated from the axilla of 8 human volunteers. Based on biochemical tests and colony morphology all strains were distinct from each other, even the several strains all belonging to Corynebacterium jeikelurn.
# [2] = tested on: Ax 26 Corynebacterium sp.; test: MIC microtiter plate test, axilla strain Ax 26; assay type: cell-based; settings: for Bacteriostatic activity Corynebact. Ax 26: at least 80% reduction in growth during 24 hours, Table 7; for Minimal inhibitory concentration (MIC) Ax 26: at least 80% growth inhibition, 24 h, 36° C., Table 1
# Source text: as §1
# as §2, with “Based on biochemical tests and colony morphology all strains were distinct from each other, even the several strains all belonging to Corynebacterium jeikelurn.” left out
# [3] = tested on: Corynebacteria; test: MIC against Corynebacteria (average / overall); assay type: cell-based, Corynebacterium; settings: malodor forming axilla bacteria
# Source text: (§3) The different bacterial strains had been isolated from the human axilla by current microbiological practice. They were taxonomically identified by cell morphology, gram-reaction, and biochemical tests included in the Api coryne test kit (BioMerieux, France). Strain Staphylococcus epidermidis Ax25 was identified by fatty acid methyl ester analysis (FAME; German type strain collection DSMZ, Germany). The strains were maintained on Tryptic soy broth plates, this standard medium being amended with 5 g per Liter of Tween 80 and 1 g of Soybean lecithin. Plates were incubated at 36° C. for a period 48 hours. The bacteria were then swabbed from the plates and suspended in 4 ml of Muller-Hinton broth amended with 100 mg of Tween 80 per Liter (MH-Tween) and incubated again at 360 C for 16 hours. Following incubation the bacterial suspensions were diluted in MH-Tween to obtain a final cell density of 10^6 colony forming units per ml. For each fragrance material four microtiter plates were used in the example, each microtiter plate having 8 rows, A-H, and 12 columns, 1-12. […]
# Since sandela is known to be a mixture of different reaction products, commercial sandela was subjected to a distillation process. […] The different fractions were evaluated for their antimicrobial activity (Table 6) with the method described in example 1. […]
# [4] = tested on: Ax 20 Corynebacterium striatum/amycolatum; test: MIC microtiter plate test, axilla strain Ax 20; assay type: cell-based; settings: at least 80% growth inhibition, 24 h, 36° C.; Table 1
# Source text: as §1, with “The minimal concentration of fragrance inhibiting the growth of an organism by at least 80% was determined as the minimal inhibitory concentration (MIC).” left out
# [5] = tested on: Ax 3 Corynebacterium bovis; test: MIC microtiter plate test, axilla strain Ax 3; assay type: cell-based; settings: at least 80% growth inhibition, 24 h, 36° C.; Table 1
# Source text: as §1, with “The minimal concentration of fragrance inhibiting the growth of an organism by at least 80% was determined as the minimal inhibitory concentration (MIC).” left out
# [6] = tested on: Ax 12 Corynebacteriurn jeikeium; test: MIC microtiter plate test, axilla strain Ax 12; assay type: cell-based, Corynebacterium jeikeium; settings: at least 80% growth inhibition, 24 h, 36° C.; Table 1
# Source text: as §1, with “The minimal concentration of fragrance inhibiting the growth of an organism by at least 80% was determined as the minimal inhibitory concentration (MIC).” left out
# [7] = tested on: Ax 7 Corynebacterium group G; test: MIC microtiter plate test, axilla strain Ax 7; assay type: cell-based; settings: for Minimal inhibitory concentration (MIC) Ax 7: at least 80% growth inhibition, 24 h, 36° C., Table 1
# Source text: as §1, §2
# [8] = tested on: Ax 11 Corynebacterium jeikeium; test: MIC microtiter plate test, axilla strain Ax 11; assay type: cell-based; settings: at least 80% growth inhibition, 24 h, 36° C.; Table 1
# Source text: as §1, with “The minimal concentration of fragrance inhibiting the growth of an organism by at least 80% was determined as the minimal inhibitory concentration (MIC).” left out
# [9] = tested on: Ax 19 Corynebacterium jeikeium; test: MIC microtiter plate test, axilla strain Ax 19; assay type: cell-based; settings: at least 80% growth inhibition, 24 h, 36° C.; Table 1
# Source text: as §3, with “1-12. To each column a diluted suspension of a different test organism was distributed, 100 μl per well. 1% stock solutions of the fragrance materials were then prepared in MH-Tween broth. The fragrance material was dispersed by ultrasonication into the aqueous medium to obtain a homogenous emulsion.” for “1-12.”
# [10] = tested on: Brevibacterium epidermidis DSMZ 9586; test: MIC against Brevibacterium epidermidis; assay type: cell-based; settings: DSMZ 9586, method of Example 1
# Source text: as §1
# A selection of perfume compounds were tested against Brevibacterium epidermidis DSMZ 9586 (German Collection of Microorganisms and Cell Cultures) with the method described in Example 1.
# [11] = tested on: Propionibacterium acnes DSMZ1897; test: MIC against Propionibacterium acnes, anaerobic, 72 hours; assay type: cell-based; settings: DSMZ1897, anaerobic conditions
# [12] = tested on: Ax 10 Corynebacterium jeikeium; test: MIC microtiter plate test, axilla strain Ax 10; assay type: cell-based; settings: at least 80% growth inhibition, 24 h, 36° C.; Table 1
# Source text: as §3, with “1-12. To each column a diluted suspension of a different test organism was distributed, 100 μl per well. 1% stock solutions of the fragrance materials were then prepared in MH-Tween broth. The fragrance material was dispersed by ultrasonication into the aqueous medium to obtain a homogenous emulsion.” for “1-12.”
Structure (SMILES),Bacteriostatic activity Corynebact. Ax 15 [1],Minimal inhibitory concentration (MIC) Ax 20 [4] [% weight/ volume],Minimal inhibitory concentration (MIC) Ax 3 [5] [% weight/ volume],Minimal inhibitory concentration (MIC) Ax 12 [6] [% weight/ volume],Minimal inhibitory concentration (MIC) Ax 15 [1] [% weight/ volume],Minimal inhibitory concentration (MIC) Ax 7 [7] [% weight/ volume],Minimal inhibitory concentration (MIC) Ax 11 [8] [% weight/ volume],MIC for Brevibacterium epidermidis [10] [% w/v],MIC for Propionibacterium acnes [11] [% w/v],other results
"COC1CC(C2CC3CC2C(C)C3(C)C)CCC1O (single isomer, unassigned) [Peak A]",0.0048 percent (w/v),–,–,–,–,–,–,–,–,Bacteriostatic activity Corynebact. Ax 26 [2]: 0.0028 percent (w/v)
"COC1CC(C2CC3CC2C(C)C3(C)C)CCC1O (single isomer, unassigned) [Peak B]",0.0028 percent (w/v),–,–,–,–,–,–,–,–,Bacteriostatic activity Corynebact. Ax 26 [2]: 0.0016 percent (w/v)
"COC1CC(C2CC3CC2C(C)C3(C)C)CCC1O (stereo not drawn) [2-methoxy-4-(5,5,6-trimethylbicyclo[2.2.1]hept-2-yl)cyclohexan-1-ol]",–,–,–,–,–,–,–,–,–,activity against Corynebacteria (in words) [3]: highest activity
"COC1CCC(C2CC3CC2C(C)C3(C)C)CC1O (stereo not drawn) [2-methoxy-5-(5,5,6-trimethyl-bicyclo[2.2.1]hept-2-yl)cyclohexan-1-ol]",–,–,–,–,–,–,–,–,–,activity against Corynebacteria (in words) [3]: highest activity
CC1=CCC(/C=C\C(C)C(C)O)C1(C)C (stereo not drawn) [Ebanol],–,0.1250,0.1250,0.2500,0.2500,0.1250,0.2500,–,–,Minimal inhibitory concentration (MIC) Ax 26 [2]: 0.1250 % weight/ volume
"CC(C)=CCCC(C)=CCCC(C)=CCO [Farnesol, 3,7,11-trimethyl-2,6,10-dodecatrien-1-ol]",0.0156 percent (w/v),0.0137,0.0156,0.0137,0.0156,–,–,0.0078,0.0078,Minimal inhibitory concentration (MIC) Ax 19 [9]: 0.0156 % weight/ volume; Minimal inhibitory concentration (MIC) Ax 10 [12]: 0.0078 % weight/ volume
CCC(=CCC1CC=C(C)C1(C)C)CO (stereo not drawn) [Radjanol],–,–,–,–,–,0.0625,–,0.03125,–,–
CC1=CCC(CCC(C)C(C)O)C1(C)C (stereo not drawn) [Sandalore],–,0.1250,0.1250,0.1250,–,0.1250,0.1250,0.0937,0.25,Minimal inhibitory concentration (MIC) Ax 26 [2]: 0.1250 % weight/ volume; Minimal inhibitory concentration (MIC) Ax 10 [12]: 0.1250 % weight/ volume
"Oc1cc(Cl)ccc1Oc1ccc(Cl)cc1Cl [Triclosan, 2,4,4′-trichloro-2′-hydroxy-diphenyl-ether]",–,–,–,–,0.0029,0.0029,0.0029,0.003125,0.00039,"Bacteriostatic activity Corynebact. Ax 7 ([7]; at least 80% reduction in growth during 24 hours, Table 7): 0.0025 percent (w/v)"
